Legend:
c-kit kinase = target: T1, c-kit kinase (Homo sapiens, UniProt P10721); experiment: c-Kit biochemical assay, AlphaScreen, 10 μM ATP; details: c-kit biochemical inhibitory activity; read-out: Biochemical activity (IC50 μM) Kit
T1 construct: The c-kit (or kinase domain thereof) is an active kinase in AlphaScreen; poly-Histidine tag (in-house protein only) (cleaved yes); host or cells: E. coli BL21(DE3)RIL, co-expressed with PTP1B
Outline: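 His-tagged c-Kit expressed in E. coli with co-expressed PTP1B (dephosphorylated), tag removed; 0.1 ng per reaction with biotinylated-peptide substrate in 50 mM HEPES pH 7.2, 5 mM MgCl2, 5 mM MnCl2, 5% DMSO, 10 μM ATP, 1 h at room temperature. Phosphorylation detected by AlphaScreen (streptavidin donor, PY20 acceptor beads); IC50 from 8-point 1:3 dilution series.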

c-kit mutant D816V = target: T2, c-kit mutant D816V (Homo sapiens, UniProt P10721, D816V/DEL694-753); experiment: c-Kit mutant D816V biochemical assay, AlphaScreen; details: c-kit D816V biochemical inhibitory activity; read-out: Biochemical activity (IC50 μM) Kit D816V
T2 construct: residues 551-934, kinase insertion domain residues 694-753 deleted; 6x-histidine (N); made in house; host or cells: E. coli Arctic Express (DE3) RIL (Stratagene)
Outline: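 Purified His-tagged c-Kit D816V (E. coli-expressed) assayed in 25 mM HEPES pH 7.2 with Mg/Mn, 5% DMSO and 10 μM ATP, 30 min at room temperature, 8-point 1:3 dilutions. Phosphorylation detected by AlphaScreen with streptavidin donor and PY20 acceptor beads; IC50 from signal versus concentration.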

T2 sequence (P10721 with tags, fused parts or gaps DEL694-753/D816V): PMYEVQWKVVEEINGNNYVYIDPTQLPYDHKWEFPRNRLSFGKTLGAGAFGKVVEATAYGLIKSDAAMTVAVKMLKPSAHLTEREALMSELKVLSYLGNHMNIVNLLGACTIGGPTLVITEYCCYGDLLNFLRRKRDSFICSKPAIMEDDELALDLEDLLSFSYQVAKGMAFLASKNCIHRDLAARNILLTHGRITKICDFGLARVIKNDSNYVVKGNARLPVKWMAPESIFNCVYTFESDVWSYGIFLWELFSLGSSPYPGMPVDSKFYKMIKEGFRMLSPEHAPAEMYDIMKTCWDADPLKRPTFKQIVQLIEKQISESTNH
T1 sequence (P10721 26-976): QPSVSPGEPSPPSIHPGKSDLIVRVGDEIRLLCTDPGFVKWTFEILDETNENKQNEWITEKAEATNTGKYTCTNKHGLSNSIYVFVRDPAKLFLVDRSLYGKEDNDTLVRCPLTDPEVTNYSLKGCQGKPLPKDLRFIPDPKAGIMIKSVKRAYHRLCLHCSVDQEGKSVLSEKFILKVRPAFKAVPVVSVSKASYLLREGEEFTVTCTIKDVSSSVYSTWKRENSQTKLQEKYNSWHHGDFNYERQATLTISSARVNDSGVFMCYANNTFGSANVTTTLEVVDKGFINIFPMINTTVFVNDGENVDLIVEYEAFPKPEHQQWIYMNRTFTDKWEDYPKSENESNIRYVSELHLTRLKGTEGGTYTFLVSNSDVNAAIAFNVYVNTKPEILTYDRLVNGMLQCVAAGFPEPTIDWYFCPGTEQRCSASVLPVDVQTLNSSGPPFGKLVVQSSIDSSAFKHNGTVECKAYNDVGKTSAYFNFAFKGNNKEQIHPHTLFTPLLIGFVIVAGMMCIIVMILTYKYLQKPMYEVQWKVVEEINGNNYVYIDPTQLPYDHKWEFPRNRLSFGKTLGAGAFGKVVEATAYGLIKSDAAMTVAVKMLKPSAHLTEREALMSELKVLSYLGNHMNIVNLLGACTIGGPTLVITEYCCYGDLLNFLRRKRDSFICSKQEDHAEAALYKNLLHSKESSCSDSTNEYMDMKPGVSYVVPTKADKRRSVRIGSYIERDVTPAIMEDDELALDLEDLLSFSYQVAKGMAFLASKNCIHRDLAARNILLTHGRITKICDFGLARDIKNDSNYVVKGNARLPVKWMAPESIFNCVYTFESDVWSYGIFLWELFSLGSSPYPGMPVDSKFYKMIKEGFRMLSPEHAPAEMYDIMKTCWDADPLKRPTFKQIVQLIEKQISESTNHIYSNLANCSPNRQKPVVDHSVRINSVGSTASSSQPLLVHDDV

Structure (SMILES)	IC50 (c-kit kinase)	IC50 (c-kit mutant D816V)
Cc1nn(C)cc1-c1cc2c(N3CCN(C(=O)N[C@@H](C)c4ccc(F)cc4)CC3)ncnc2[nH]1 [P-0724, 4-[6-(1,3-dimethylpyrazol-4-yl)-7H-pyrrolo[2,3-d]pyrimidin-4-yl]-N-[(1S)-1-(4-fluorophenyl)ethyl]piperazine-1-carboxamide]	0.0001 to 1 µM	0.0001 to 1 µM
O=C(NCc1ccc(F)cc1)N1CCN(c2ncnc3[nH]ccc23)CC1 [P-0182, N-[(4-fluorophenyl)methyl]-4-(7H-pyrrolo[2,3-d]pyrimidin-4-yl)piperazine-1-carboxamide]	10 to 200 µM	10 to 200 µM
C#Cc1cc2c(N3CCN(C(=O)Nc4ccc(OCC)cc4)CC3)ncnc2[nH]1 [P-0089, N-(4-ethoxyphenyl)-4-(6-ethynyl-7H-pyrrolo[2,3-d]pyrimidin-4-yl)piperazine-1-carboxamide]	1 to 10 µM	10 to 200 µM
Cc1cc2c(-c3ccc(NS(=O)(=O)c4ccc(F)c(F)c4)cc3)ncnc2[nH]1 [P-0314, 3,4-difluoro-N-[4-(6-methyl-7H-pyrrolo[2,3-d]pyrimidin-4-yl)phenyl]benzenesulfonamide]	10 to 200 µM	1 to 10 µM
COc1cc2ncnc(-c3ccc(NS(=O)(=O)C4CC4)cc3F)c2cc1OCCCN1CCOCC1 [P-0251, N-[3-fluoro-4-[7-methoxy-6-(3-morpholinopropoxy)quinazolin-4-yl]phenyl]cyclopropanesulfonamide]	10 to 200 µM	0.0001 to 1 µM
COc1cccc([C@H](C)NC(=O)N2CCN(c3ncnc4[nH]c(C)cc34)C[C@H]2C)c1 [P-0683, (2R)-N-[(1S)-1-(3-methoxyphenyl)ethyl]-2-methyl-4-(6-methyl-7H-pyrrolo[2,3-d]pyrimidin-4-yl)piperazine-1-carboxamide]	10 to 200 µM	10 to 200 µM
CNS(=O)(=O)c1cccc(-c2ncnc3[nH]c(C)cc23)c1 [P-0319, N-methyl-3-(6-methyl-7H-pyrrolo[2,3-d]pyrimidin-4-yl)benzenesulfonamide]	10 to 200 µM	10 to 200 µM
CCOc1ccc(NC(=O)N2CCN(c3ncnc4[nH]c(-c5cccnc5)cc34)CC2)cc1 [P-0225, N-(4-ethoxyphenyl)-4-[6-(3-pyridyl)-7H-pyrrolo[2,3-d]pyrimidin-4-yl]piperazine-1-carboxamide]	10 to 200 µM	1 to 10 µM
COc1cccc([C@H](C)NC(=O)N2CC=C(c3ncnc4cc(-c5cn(C)nc5C)sc34)CC2)c1 [P-0582, 4-[6-(1,3-dimethylpyrazol-4-yl)thieno[3,2-d]pyrimidin-4-yl]-N-[(1S)-1-(3-methoxyphenyl)ethyl]-3,6-dihydro-2H-pyridine-1-carboxamide]	1 to 10 µM	0.0001 to 1 µM
Cc1csc(S(=O)(=O)Nc2ccc(-c3ncnc4[nH]c(C)cc34)cc2)c1 [P-0305, 4-methyl-N-[4-(6-methyl-7H-pyrrolo[2,3-d]pyrimidin-4-yl)phenyl]thiophene-2-sulfonamide]	0.0001 to 1 µM	1 to 10 µM
O=S(=O)(NC1CCN(c2ncnc3[nH]c(C4=CCCC4)cc23)CC1)c1ccc(OC(F)(F)F)cc1 [P-0669, N-[1-[6-(cyclopenten-1-yl)-7H-pyrrolo[2,3-d]pyrimidin-4-yl]-4-piperidyl]-4-(trifluoromethoxy)benzenesulfonamide]	0.0001 to 1 µM	0.0001 to 1 µM
O=C(NCc1ccc(F)cc1)N1CCN(c2ncnc3[nH]cc(CC4CC4)c23)CC1 [P-0137, 4-[5-(cyclopropylmethyl)-7H-pyrrolo[2,3-d]pyrimidin-4-yl]-N-[(4-fluorophenyl)methyl]piperazine-1-carboxamide]	10 to 200 µM	1 to 10 µM
Cn1cc(-c2cc3ncnc(N4CCN(C(=O)NCc5ccccc5)CC4)c3s2)cn1 [P-0626, N-benzyl-4-[6-(1-methylpyrazol-4-yl)thieno[3,2-d]pyrimidin-4-yl]piperazine-1-carboxamide]	10 to 200 µM	1 to 10 µM
Cc1nn(C)cc1-c1cc2ncnc(C3CCNCC3)c2s1 [P-0607, 6-(1,3-dimethylpyrazol-4-yl)-4-(4-piperidyl)thieno[3,2-d]pyrimidine]	1 to 10 µM	10 to 200 µM
